In this assay the target is T1, IRAK4 (Homo sapiens, UniProt Q9NWZ3).
T1 construct: expressed in transfected cells; host or cells: THP1 (THP1-HIBiT-IRAK4 engineered line)
T1 sequence (Q9NWZ3 1-460): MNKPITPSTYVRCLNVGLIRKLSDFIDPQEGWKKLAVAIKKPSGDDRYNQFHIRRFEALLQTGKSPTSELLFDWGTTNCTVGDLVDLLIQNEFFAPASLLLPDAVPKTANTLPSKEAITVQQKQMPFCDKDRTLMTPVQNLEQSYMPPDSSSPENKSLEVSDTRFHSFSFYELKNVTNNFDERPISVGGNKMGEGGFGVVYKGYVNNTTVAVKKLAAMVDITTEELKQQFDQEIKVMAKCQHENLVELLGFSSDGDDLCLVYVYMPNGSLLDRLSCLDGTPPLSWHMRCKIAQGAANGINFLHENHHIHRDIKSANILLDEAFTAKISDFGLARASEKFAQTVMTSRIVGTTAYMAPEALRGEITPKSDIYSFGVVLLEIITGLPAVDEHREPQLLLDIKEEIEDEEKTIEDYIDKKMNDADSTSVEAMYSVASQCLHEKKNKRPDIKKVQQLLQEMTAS
Briefly: HiBiT-based intracellular degradation assay of THP1-HIBiT-IRAK4 cells. Type of assay: cell-based. Particulars: half-maximal degradation concentration of IRAK4 protein, 24 h incubation. As to the method:
HiBiT-based intracellular degradation assay of THP1-HIBiT-IRAK4 cells
THP1-HIBiT-IRAK4 cells were cultured in RPMI 1640 medium supplemented with 10% fetal bovine serum (FBS) and 1% penicillin-streptomycin (PS) (37°C and 5% CO2). The THP1-HIBiT-IRAK4 cells were inoculated in a 384-well plate at 5000 cells/40 µL/well. Compound solutions with different concentrations were added at 40 nL/well and incubated for 24 h at 37°C in 5% CO2. HiBiT lysis detection reagents were added to the wells, the plate was incubated for 30 min at room temperature, and luminescence values were read on Envision. [formula]
The DC50 (half-maximal degradation concentration) of each compound was obtained using XLfit software and the following nonlinear fitting equation: Y = bottom + (top−bottom)/(1+10^(∧)((LogDC50−X)×Hillslope)). [formula]
X denotes a log value of the compound concentration.
Y denotes the degradation rate.
Table 1 lists the results of DC50 values of IRAK4 protein degradation. […]
(HiBiT is a short tag that completes a luciferase, so light tracks the accessible tagged protein.)

For orientation: DC50 means the concentration giving 50% degradation.

`COc1cc2nc(C3CCN(CCN4CCN(c5ccc6c(c5)C(=O)N(C5CCC(=O)NC5=O)C6=O)CC4)CC3)cn2cc1NC(=O)c1cccc(C(F)(F)F)n1` (stereo not shown) [Example 11, N-(2-(1-(2-(4-(2-(2,6-dioxopiperidin-3-yl)-1,3-dioxoisoindolin-5-yl)piperazin-1-yl)ethyl)piperidin-4-yl)-7-methoxyimidazo[1,2-a]pyridin-6-yl)-6-(trifluoromethyl)pyridine-2-carboxamide] had a DC50 of 2.23 nM.
As for `CC(C)(O)c1cc2nc(C3CCN(CCCC(=O)N4CCN(c5ccc6c(c5)C(=O)N(C5CCC(=O)NC5=O)C6=O)CC4)CC3)cn2cc1NC(=O)c1cccc(C(F)(F)F)n1` (stereo not shown) [Example 4, N-(2-(1-(4-(4-(2-(2,6-dioxopiperidin-3-yl)-1,3-dioxoisoindolin-5-yl)piperazin-1-yl)-4-oxobutyl)piperidin-4-yl)-7-(2-hydroxypropan-2-yl)imidazo[1,2-a]pyridin-6-yl)-6-(trifluoromethyl)pyridine-2-carboxamide], the figure is 5.05 nM; as for `CC(C)(O)c1cc2nc(C3CCN(CCN4CC5(CCN(c6ccc7c(c6)C(=O)N(C6CCC(=O)NC6=O)C7=O)CC5)C4)CC3)cn2cc1NC(=O)c1cccc(C(F)(F)F)n1` (stereo not shown) [Example 17, N-(2-(1-(2-(7-(2-(2,6-dioxopiperidin-3-yl)-1,3-dioxoisoindolin-5-yl)-2,7-diazaspiro[3.5]nonan-2-yl)ethyl)piperidin-4-yl)-7-(2-hydroxypropan-2-yl)imidazo[1,2-a]pyridin-6-yl)-6-(trifluoromethyl)pyridine-2-carboxamide], 4.86 nM.
`CC(C)(O)c1cc2nc(C3CCN(CC4CCN(c5ccc6c(c5)CN(C5CCC(=O)NC5=O)C6=O)CC4)CC3)cn2cc1NC(=O)c1cccc(C(F)(F)F)n1` (stereo not shown) [Example 7, N-(2-(1-((1-(2-(2,6-dioxopiperidin-3-yl)-1-oxoisoindolin-5-yl)piperidin-4-yl)methyl)piperidin-4-yl)-7-(2-hydroxypropan-2-yl)imidazo[1,2-a]pyridin-6-yl)-6-(trifluoromethyl)pyridine-2-carboxamide] yielded a DC50 of 1.36 nM.
`CC(C)(O)c1cc2nc(C3CCN(CCN4CCN(c5ccc6c(c5)CN(C5CCC(=O)NC5=O)C6=O)CC4)CC3)cn2cc1NC(=O)c1cccc(C(F)(F)F)n1` (stereo not shown) [Example 10, N-(2-(1-(2-(4-(2-(2,6-dioxopiperidin-3-yl)-1-oxoisoindolin-5-yl)piperazin-1-yl)ethyl)piperidin-4-yl)-7-(2-hydroxypropan-2-yl)imidazo[1,2-a]pyridin-6-yl)-6-(trifluoromethyl)pyridine-2-carboxamide]: it took 0.51 nM to reach half-maximal degradation (DC50).
`CC(C)(O)c1cc2nc(C3CCN(CCN4CC5(C4)CN(c4ccc6c(c4)C(=O)N(C4CCC(=O)NC4=O)C6=O)C5)CC3)cn2cc1NC(=O)c1cccc(C(F)(F)F)n1` (stereo not shown) [Example 21, N-(2-(1-(2-(6-(2-(2,6-dioxopiperidin-3-yl)-1,3-dioxoisoindolin-5-yl)-2,6-diazaspiro[3.3]heptan-2-yl)ethyl)piperidin-4-yl)-7-(2-hydroxypropan-2-yl)imidazo[1,2-a]pyridin-6-yl)-6-(trifluoromethyl)pyridine-2-carboxamide]: the DC50 is 2.3 nM.
Then `CC(C)(O)c1cc2nc(C3CCN(CCCCC#Cc4cccc5c4CN(C4CCC(=O)NC4=O)C5=O)CC3)cn2cc1NC(=O)c1cccc(C(F)(F)F)n1` (stereo not shown) [Comparative Example 2, N-(2-(1-(6-(2-(2,6-dioxopiperidin-3-yl)-1-oxoisoindolin-4-yl)hex-5-yn-1-yl)piperidin-4-yl)-7-(2-hydroxypropan-2-yl)imidazo[1,2-a]pyridin-6-yl)-6-(trifluoromethyl)pyridine-2-carboxamide, reference compound], with above 10000 nM.

Values taken from patent publication EP4748840A1, “IMIDAZO[1,2-A]PYRIDINE TYPE IRAK DEGRADATION AGENT AND USE THEREOF” (TAINUORUI (TIANJIN) BIOTECHNOLOGY CO., LTD, priority 2023, dated 2025).
